According to patent US9908863B2, “Piperidinylcarbazoles” (Merck Patent GmbH, priority 2013, dated 2018):
Where a name gives a salt, the structure may show the parent alone.

The compounds below were run on Chloroquine/Pyrimethamine resistant Plasmodium falciparum K1 (assay: In vitro sensitivity assay: Plasmodium falciparum by 3H-hypoxanthine incorporation). Conditions: Erythrocyte, P. falciparum K1 strain in human red blood cells, 3H-hypoxanthine incorporation, read-out: IC50 K1 in vitro.
Assay type: cell-based
Description: Biological Test 1: In Vitro Sensitivity Assays: Plasmodium falciparum by ^3H-Hypoxanthine Incorporation.
The strain used for this assay is the Chloroquine/Pyrimethamine resistant Plasmodium falciparum K1 and drugs such as Chloroquine (10 mg/mL stock; start concentration 1000 ng/mL) and Artemisinine (Qinghaosu) (5 mg/mL stock; start concentration 10 ng/mL) were used as standards. Human red blood cells were used as host cells and the activity was measured using a ^3H-hypoxanthine incorporation assay.
Into a Costar™ 96-well microtitre plates, 100 μL of medium (RPMI 1640 without hypoxanthine 10.44 g/L, HEPES 5.94 g/L, Albumax® 5 g/L, Neomycin 10 mL/L, NaHCO3 2.1 g/L) were added to the wells of row containing drugs available from stock solutions of 10 mg/mL in DMSO (compounds were kept at −20° C. Since DMSO is toxic, care had to be taken not to exceed a final concentration of 0.5% DMSO). Then 100 μL of medium were added at rt to all wells of the plate. By means of a 12-well multi-pipette serial drug dilutions were prepared. A serial dilution factor of 1:2 is thus obtained. One row of wells without drugs served as controls. Next 100 μL of medium+washed human red blood cells A+(RBC) was added to the last 4 wells of the first row; these columns serve as background controls (that may be caused by 3H-hypoxanthine incorporation into RBC without the parasite). Into the remaining wells, 100 μL of medium+RBC+P. falciparum mix was added. The plates were placed for 48 h into a chamber at 37° C. gassed with a 4% CO2, 3% O2, 93% N2 mix. Finally 50 μL of medium+3H-hypoxanthine [(500 μL ^3H-hypoxanthine stock+500 μL EtOH+49 mL medium (0.5 μCi)] was added to each well and the plates were put back at 37° C. for 24 h into the chamber and gassed with a 4% CO2, 3% O2, 93% N2 mix. The plates were then read using the Cell Harvester and the data were transferred into a graphic program (Excel) and are evaluated to determine the IC50 by linear interpolation.

First: CC(C)(C)OC(=O)N1CC[C@H](n2c3ccc(F)cc3c3cc(Cl)ccc32)[C@@H](O)C1 (racemic) [Compound 1, trans-4-(3-Chloro-6-fluoro-carbazol-9-yl)-3-hydroxy-piperidine-1-carboxylic acid tert-butyl ester]
Second: O[C@H]1CCN(C2CCCCC2)C[C@@H]1n1c2ccc(Cl)cc2c2cc(Cl)ccc21 (racemic) [Compound 14]
The IC50 of the first is 24-fold higher: 315 nM for the first, 13 nM for the second. The second is the more potent here.

Same assay, conditions: K1, Erythrocyte, read-out: IC50 K1 in vitro

First: O[C@@H]1CNCC[C@H]1n1c2ccc(F)cc2c2cc(Cl)ccc21 [Compound 4, (3R,4R)-4-(3-Chloro-6-fluoro-carbazol-9-yl)-piperidin-3-ol hydrochloride salt]
Second: O[C@H]1CNCC[C@@H]1n1c2ccccc2c2ccccc21 [Compound 16, (3S,4S)-4-Carbazol-9-yl-piperidin-3-ol hydrochloride salt]
The IC50 of the first is 120-fold lower: 3 nM for the first, 364 nM for the second. The first is the more potent here.

These compounds were tested on P. falciparum strain NF54 (assay: P. falciparum growth assay ([3H] hypoxanthine incorporation)). Conditions: Plasmodium falciparum; P. falciparum NF54 strain, 72 h incubation, [3H]hypoxanthine incorporation; read-out: IC50 NF54.
Assay type: cell-based
Description: • Cultivation of P. falciparum:
P. falciparum strain NF54 was obtained from the Research and Reference Reagent
Resource Center (MR4) (Manassas, Va.). The two strains were maintained in vitro by a modification of the method of Trager and Jensen. Cultures were maintained in A positive (A+) human erythrocytes suspended at 5% hematocrit in complete medium. 5 g albumax II (Gibco-Invitrogen, Cat No#11021037), 2.5 mg gentamicin (Sigma Aldrich), 25 mM HEPES (Invitrogen), 5 mg hypoxanthine (Sigma), and 1 L of RPMI 1640 (Invitrogen, Cat No#11875085). Cultures were grown in 100 mm petri-dishes (BD Falcon) at a volume of 15 mL and were kept in a standard gas environment of 4% CO2 and 3% 02 at temperature 37° C. in a tri-gas incubator (Cat#3131, Thermo Scientific Forma Series II Water Jacketed). Parasite growth and morphology were observed daily using thin smears at 100× (oil immersion) magnification following staining with Geimsa stain. • P. falciparum growth assay:
The protocol assesses the compound efficacy against the growth of P. falciparum in-vitro.
Parasite growth was detected in assay by the traditional [3H] hypoxanthine incorporation assay as previously described by Desjardins and colleagues (Antimicrob. Agents Chemother., 16(6), 710, 1979). To perform the [3H] hypoxanthine incorporation assay, the new antimalarial agents were serially diluted 1:1 into hypoxanthine-free complete medium to a final volume of 100 μL (final antimalarial agent concentration range, 10,000 nM to 4.8 nM may change in special case) in 96 well sterile cell culture plates. […] All cultures used in the study are albumax II adopted. The microtiter plates were incubated in chamber in a standard gas environment at 37° C. for 72 h. After 48 h of incubation and prior to addition of 50 μL (0.5 μCi/well) 3H-Hypoxanthine (specific activity, 20 Ci/mmol, Conc. 1.0 mCi/ml; American Radiolabeled Chemicals, Inc., St. Louis, Mo.), culture growth was assessed by making the smears that ensures the culture has grown in % p and assay plate is further incubated for 24 h. Following the incubation period, the plates were harvested with a FilterMate cell harvester (Perkin Elmer) onto unifilter-96 GF/B plates, washed with distilled water to remove excess radiochemical and plates were kept for drying 37° C. overnight or 60° C. for 1 h. 50 μL of Microscint scintillation cocktail (Microscint-High Efficiency LSC-Cocktail; Perkin Elmer) added in the unifilter-96 GF/B plates and kept for 15-20 min. The plates were counted in a Top Count NXT microplate scintillation and luminescence counter (Perkin Elmer). The mean values for [3H]hypoxanthine incorporation in parasitized control and non-parasitized control erythrocytes were calculated.
Assay data were analyzed using Graph pad prism ver.5 software. A variable sigmoid dose response curve is plotted keeping log concentrations at X-axis and % inhibition at Y-axis.

`O[C@@H]1CCN(CC2(C(F)(F)F)CC2)C[C@H]1n1c2ccc(F)cc2c2cc(F)ccc21` [Compound 53, (3R,4R)-3-(3,6-difluoro-9H-carbazol-9-yl)-1-((1-(trifluoromethyl)cyclopropyl)methyl)piperidin-4-ol] and `O[C@@H]1CCN(CCC(F)(F)F)C[C@H]1n1c2ccc(F)cc2c2cc(F)ccc21` [Compound 45, (3R,4R)-3-(3,6-difluoro-9H-carbazol-9-yl)-1-(3,3,3-trifluoropropyl)piperidin-4-ol] are within 1.5-fold of each other in IC50: 73.6 nM for the first, 96 nM for the second.

First: CC(C)(C)OC(=O)N1CC[C@@H](O)[C@H](n2c3ccc(F)cc3c3cc(F)ccc32)C1 (racemic) [Compound 44, trans-tert-butyl 3-(3,6-difluoro-9H-carbazol-9-yl)-4-hydroxypiperidine-1-carboxylate]
Second: CC(C)(C)OC(=O)N1CC[C@H](O)[C@@H](n2c3ccc(F)cc3c3cc(F)ccc32)C1 (single isomer, unassigned) [Compound 48]
The IC50 of the first is 1.6-fold lower: 792 nM for the first, 1260 nM for the second. The first is the more potent here.

Compared with `O[C@@H]1CCN(CCC(F)(F)F)C[C@H]1n1c2ccc(Cl)cc2c2cc(Cl)cnc21` [Compound 57, (3R,4R)-3-(3,6-dichloro-9H-pyrido[2,3-b]-indol-9-yl)-1-(3,3,3-trifluoropropyl)piperidin-4-ol], `O[C@@H]1CN(CCC(F)(F)F)CC[C@H]1n1c2ccc(Cl)cc2c2cc(Cl)cnc21` [Compound 58, (3R,4R)-4-(3,6-dichloro-9H-pyrido[2,3-b]indol-9-yl)-1-(3,3,3-trifluoropropyl)piperidin-3-ol] is 3.1-fold lower in IC50: 2240 nM for the first, 724 nM for the second. The second is the more potent here.

`O[C@@H]1CCN(CCC(F)(F)F)C[C@H]1n1c2ccc(Cl)cc2c2cc(Cl)ccc21` [Compound 54, (3R,4R)-3-(3,6-dichloro-9H-carbazol-9-yl)-1-(3,3,3-trifluoropropyl)piperidin-4-ol] and `O[C@@H]1CCN(CCCC(F)(F)F)C[C@H]1n1c2ccc(F)cc2c2cc(F)ccc21` [Compound 49, (3R,4R)-3-(3,6-difluoro-9H-carbazol-9-yl)-1-(4,4,4-trifluorobutyl)piperidin-4-ol] are within 1.5-fold of each other in IC50: 28.2 nM for the first, 33.6 nM for the second.

`O[C@@H]1CNCC[C@H]1n1c2ccc(F)cc2c2cc(F)ccc21` (racemic) [Compound 62] and `O[C@@H]1CCN(CC2CC2)C[C@H]1n1c2ccc(F)cc2c2cc(F)ccc21` [Compound 50, (3R,4R)-1-(cyclopropylmethyl)-3-(3,6-difluoro-9H-carbazol-9-yl)piperidin-4-ol] are within 1.5-fold of each other in IC50: 263 nM for the first, 290 nM for the second.

Compared with `CC(C)(C)OC(=O)N1CC[C@@H](O)[C@H](n2c3ccc(F)cc3c3cc(F)ccc32)C1` (single isomer, unassigned) [Compound 47], `CC(C)(C)OC(=O)N1CC[C@@H](n2c3ccc(F)cc3c3cc(F)ccc32)[C@H](O)C1` (racemic) [Compound 46, trans-tert-butyl 4-(3,6-difluoro-9H-carbazol-9-yl)-3-hydroxypiperidine-1-carboxylate] is 2.3-fold higher in IC50: 576 nM for the first, 1330 nM for the second. The first is the more potent here.

Going from `O[C@H]1CCN(Cc2ccccc2)C[C@@H]1n1c2ccc(F)cc2c2cc(F)ccc21` (single isomer, unassigned) [Compound 43] to `O[C@@H]1CCN(Cc2ccccc2)C[C@H]1n1c2ccc(F)cc2c2cc(F)ccc21` (single isomer, unassigned) [Compound 42], the IC50 falls from 910 nM to 79.8 nM (11-fold). The second is the more potent here.

Going from `CC(C)(C)CN1CC[C@@H](O)[C@H](n2c3ccc(F)cc3c3cc(F)ccc32)C1` [Compound 51, (3R,4R)-3-(3,6-difluoro-9H-carbazol-9-yl)-1-neopentylpiperidin-4-ol] to `O[C@@H]1CCN(Cc2ccccc2)C[C@H]1n1c2ccc(F)cc2c2cc(F)ccc21` (relative stereo) [Compound 63, trans-1-benzyl-3-(3,6-difluoro-9H-carbazol-9-yl)piperidin-4-ol], the IC50 falls from 555 nM to 233 nM (2.4-fold).

`O[C@H]1CNCC[C@@H]1n1c2ccc(Cl)cc2c2cc(Cl)cnc21` (single isomer, unassigned) [Compound 19] and `O[C@@H]1CNCC[C@H]1n1c2ccc(Cl)cc2c2cc(Cl)cnc21` (single isomer, unassigned) [Compound 20] are within 1.5-fold of each other in IC50: 93.3 nM for the first, 124 nM for the second.

`O[C@@H]1CNCC[C@H]1n1c2ccc(C(F)(F)F)cc2c2cc(C(F)(F)F)ccc21` (racemic) [Compound 68, trans-4-(3,6-bis(trifluoromethyl)-9H-carbazol-9-yl)piperidin-3-ol] and `O[C@H]1CNCC[C@@H]1n1c2ccc(C(F)(F)F)cc2c2cc(C(F)(F)F)ccc21` [Compound 61, (3S,4S)-4-(3,6-bis(trifluoromethyl)-9H-carbazol-9-yl)piperidin-3-ol] are within 1.5-fold of each other in IC50: 22.2 nM for the first, 20.5 nM for the second.

Going from `O[C@@H]1CCNC[C@H]1n1c2ccc(Cl)cc2c2cc(Cl)cnc21` (single isomer, unassigned) [Compound 55] to `O[C@@H]1CCNC[C@H]1n1c2ccc(Cl)cc2c2cc(Cl)ccc21` (single isomer, unassigned) [Compound 66], the IC50 falls from 3600 nM to 1690 nM (2.1-fold). The second is the more potent here.

Going from `O[C@@H]1CCNC[C@H]1n1c2ccc(C(F)(F)F)cc2c2cc(C(F)(F)F)ccc21` (racemic) [Compound 59, trans-3-(3,6-bis(trifluoromethyl)-9H-carbazol-9-yl)piperidin-4-ol] to `O[C@@H]1CNCC[C@H]1n1c2ccc(C(F)(F)F)cc2c2cc(C(F)(F)F)ccc21` [Compound 60, (3R,4R)-4-(3,6-bis(trifluoromethyl)-9H-carbazol-9-yl)piperidin-3-ol], the IC50 falls from 1300 nM to 20.5 nM (63-fold).

Going from `O[C@@H]1CN(Cc2ccccc2)CC[C@H]1n1c2ccc(F)cc2c2cc(F)ccc21` (relative stereo) [Compound 41, trans-1-benzyl-4-(3,6-difluoro-9H-carbazol-9-yl)piperidin-3-ol] to `O[C@@H]1CCN(CCc2ccccc2)C[C@H]1n1c2ccc(F)cc2c2cc(F)ccc21` [Compound 52, (3R,4R)-3-(3,6-difluoro-9H-carbazol-9-yl)-1-phenethylpiperidin-4-ol], the IC50 falls from 280 nM to 169 nM (1.7-fold). The second is the more potent here.
